Measured values from US20060069132A1, “Azolecarboxamide herbicides” (priority 2004, published 2006).

Columns and labels:
Surinam grass = assay: Test B pre-/postemergence herbicide test; format: in vivo, Urochloa decumbens
Method in brief: (§1)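 Evaluation is visual, comparing treated with control plants on a scale where 0 means no effect and 100 means full control. Treatments were preemergence, or postemergence on seedlings 2–18 cm tall, and held 13–15 days in the greenhouse.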

large crabgrass [1] = assay: Test B pre-/postemergence herbicide test; format: in vivo, Digitaria sanguinalis
Method in brief: as §1

rice = assay: Test B pre-/postemergence herbicide test; format: in vivo, Oryza sativa; settings: preemergence; for Plant response rating, Rice: 500 g ai/ha
Method in brief: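 Plants compared with untreated controls 13–15 days post-treatment and given a visual 0–100 injury score. Applications: preemergence to seeds; postemergence at 1- to 4-leaf (2–18 cm); paddy species flooded, 2-leaf stage. Vehicle non-phytotoxic, surfactant included.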

cocklebur = assay: Test C pre-/postemergence herbicide test; format: in vivo, Xanthium strumarium; settings: for Cocklebur plant response rating: 500 g ai/ha
Method in brief: (§2)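 Pre- and postemergence application, solvent/surfactant formulation; post at 1- to 4-leaf stage (2–18 cm). Greenhouse 12–14 d. Visual rating vs controls, 0 = no effect, 100 = complete control.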

large crabgrass [2] = assay: Test C pre-/postemergence herbicide test; format: in vivo, Digitaria sanguinalis
Method in brief: as §2

johnsongrass = assay: Test C pre-/postemergence herbicide test; format: in vivo, Sorghum halepense
Method in brief: as §2

morningglory = assay: Test C pre-/postemergence herbicide test; format: in vivo, Ipomoea coccinea; parameters: key to Plant response rating, Morningglory: 0 = no effect, 100 = complete control
Method in brief: as §2

eastern black nightshade = assay: Test C pre-/postemergence herbicide test; format: in vivo, Solanum ptycanthum; settings: preemergence
Method in brief: as §2

yellow nutsedge = assay: Test C pre-/postemergence herbicide test; format: in vivo, Cyperus esculentus
Method in brief: as §2

[3] = 125 g ai/ha; 0 is no effect, 100 is complete control; preemergence
[4] = 125 g ai/ha; visual rating, scale 0 (no effect) to 100 (complete control); postemergence
[5] = 500 g ai/ha; visual rating, 0 = no effect, 100 = complete control; preemergence
[6] = postemergence, 500 g ai/ha; scale 0 to 100, 0 is no effect, 100 is complete control
[7] = 62 g ai/ha, preemergence, scale 0 to 100
[8] = 125 g ai/ha, scale 0 (no effect) to 100 (complete control), visual, 12 to 14 days, preemergence
[9] = 250 g ai/ha, scale 0-100, preemergence
[10] = Postemergence, 250 g ai/ha, scale 0 to 100, 0 no effect, 100 complete control
[11] = Preemergence, scale 0 to 100, 0 no effect, 100 complete control
[12] = postemergence, 125 g ai/ha, scale 0 to 100
[13] = postemergence, 62 g ai/ha, scale 0 to 100
[14] = 500 g ai/ha, scale 0 to 100 (0 no effect, 100 complete control), visual, 12 to 14 days, preemergence
[15] = Postemergence, 500 g ai/ha, scale 0 to 100
[16] = 125 g ai/ha, scale 0 (no effect) to 100 (complete control), visual, 12 to 14 days
[17] = 500 g ai/ha, scale 0 to 100 (0 no effect, 100 complete control), visual, 12 to 14 days
[18] = 125 g ai/ha; 0 = no effect, 100 = complete control; preemergence
[19] = 500 g ai/ha; visual rating 0-100, 0 no effect, 100 complete control; preemergence
[20] = postemergence, 125 g ai/ha; visual rating, scale 0 (no effect) to 100 (complete control)
[21] = postemergence, 500 g ai/ha; visual rating, scale 0 (no effect) to 100 (complete control)

C=CCNC(=O)c1cccc(NC(=O)c2cc(C(C)(C)C)nn2C)n1 [Compound 318]
Plant response rating (0 to 100 scale), Surinam Grass (Surinam grass; [3]): 0
Surinam Grass plant response rating (Surinam grass; [4]): 10
Plant response rating, Surinam Grass (Surinam grass; [5]): 40
Surinam Grass plant response rating (Surinam grass; [6]): 20
Plant response rating (0 to 100 scale), Crabgrass, Large (large crabgrass [1]; [3]): 10
Crabgrass, Large plant response rating (large crabgrass [1]; [4]): 10
Plant response rating, Crabgrass, Large (large crabgrass [1]; [5]): 90
Crabgrass, Large plant response rating (large crabgrass [1]; [6]): 60
Plant response rating (0 to 100 scale), Rice (rice; 125 g ai/ha, 0 is no effect, 100 is complete control): 0
Plant response rating, Rice (rice; visual rating, 0 = no effect, 100 = complete control): 50
Plant response rating, Cocklebur (cocklebur; [7]): 0
Plant response rating, Cocklebur (cocklebur; [8]): 0
Plant response rating, Cocklebur (cocklebur; [9]): 0
Cocklebur plant response rating (cocklebur; Postemergence, scale 0 to 100): 100
Plant response rating, Cocklebur (cocklebur; [10]): 10
Cocklebur plant response rating (cocklebur; [11]): 0
Plant response rating, Cocklebur (cocklebur; [12]): 5
Plant response rating, Cocklebur (cocklebur; [13]): 0
Plant response rating, Crabgrass, Large (large crabgrass [2]; [8]): 50
Plant response rating, Crabgrass, Large (large crabgrass [2]; [9]): 60
Plant response rating, Crabgrass, Large (large crabgrass [2]; [14]): 100
Crabgrass, Large plant response rating (large crabgrass [2]; [15]): 50
Plant response rating, Crabgrass, Large (large crabgrass [2]; [10]): 30
Plant response rating, Crabgrass, Large (large crabgrass [2]; [12]): 0
Plant response rating, Crabgrass, Large (large crabgrass [2]; [13]): 0
Plant response rating, Johnsongrass (johnsongrass; [7]): 0
Plant response rating, Johnsongrass (johnsongrass; [8]): 0
Plant response rating, Johnsongrass (johnsongrass; [9]): 60
Plant response rating, Johnsongrass (johnsongrass; [14]): 95
Johnsongrass plant response rating (johnsongrass; [15]): 0
Plant response rating, Johnsongrass (johnsongrass; [10]): 0
Plant response rating, Johnsongrass (johnsongrass; [12]): 0
Plant response rating, Johnsongrass (johnsongrass; [13]): 0
Plant response rating, Morningglory (morningglory; [7]): 0
Plant response rating, Morningglory (morningglory; [8]): 0
Plant response rating, Morningglory (morningglory; [9]): 0
Plant response rating, Morningglory (morningglory; [14]): 85
Morningglory plant response rating (morningglory; [15]): 0
Plant response rating, Morningglory (morningglory; [10]): 0
Plant response rating, Morningglory (morningglory; [12]): 0
Plant response rating, Morningglory (morningglory; [13]): 0
Plant response rating, Nightshade (eastern black nightshade; 62 g ai/ha, scale 0 to 100): 80
Plant response rating, Nightshade (eastern black nightshade; [16]): 90
Plant response rating, Nightshade (eastern black nightshade; 250 g ai/ha, scale 0-100): 95
Plant response rating, Nightshade (eastern black nightshade; [17]): 95
Plant response rating, Nutsedge, Yellow (yellow nutsedge; [7]): 0
Plant response rating, Nutsedge, Yellow (yellow nutsedge; [8]): 0
Plant response rating, Nutsedge, Yellow (yellow nutsedge; [9]): 0
Plant response rating, Nutsedge, Yellow (yellow nutsedge; [14]): 0
Nutsedge, Yellow plant response rating (yellow nutsedge; [15]): 0
Plant response rating, Nutsedge, Yellow (yellow nutsedge; [10]): 0
Plant response rating, Nutsedge, Yellow (yellow nutsedge; [12]): 0
Plant response rating, Nutsedge, Yellow (yellow nutsedge; [13]): 0

CCc1nc(C(C)(C)C)sc1C(=O)Nc1cccc(C(=O)NCC2CC2)c1 [Compound 212]
Surinam Grass plant response rating (0 to 100 scale) (Surinam grass; [18]): 50
Plant response rating, Surinam Grass (Surinam grass; [19]): 70
Surinam Grass plant response rating (Surinam grass; [20]): 30
Surinam Grass plant response rating (Surinam grass; [21]): 60
Crabgrass, Large plant response rating (0 to 100 scale) (large crabgrass [1]; [18]): 60
Plant response rating, Crabgrass, Large (large crabgrass [1]; [19]): 100
Crabgrass, Large plant response rating (large crabgrass [1]; [20]): 10
Crabgrass, Large plant response rating (large crabgrass [1]; [21]): 10
Rice plant response rating (0 to 100 scale) (rice; 125 g ai/ha, 0 = no effect, 100 = complete control): 10
Plant response rating, Rice (rice; visual rating 0-100, 0 no effect, 100 complete control): 20
Plant response rating, Cocklebur (cocklebur; [7]): 0
Plant response rating, Cocklebur (cocklebur; [8]): 0
Plant response rating, Cocklebur (cocklebur; [9]): 5
Cocklebur plant response rating (cocklebur; Postemergence, scale 0 to 100): 70
Plant response rating, Cocklebur (cocklebur; [10]): 70
Cocklebur plant response rating (cocklebur; [11]): 95
Plant response rating, Cocklebur (cocklebur; [12]): 60
Plant response rating, Cocklebur (cocklebur; [13]): 10
Plant response rating, Crabgrass, Large (large crabgrass [2]; [7]): 60
Plant response rating, Crabgrass, Large (large crabgrass [2]; [8]): 80
Plant response rating, Crabgrass, Large (large crabgrass [2]; [9]): 85
Plant response rating, Crabgrass, Large (large crabgrass [2]; [14]): 100
Crabgrass, Large plant response rating (large crabgrass [2]; [15]): 20
Plant response rating, Crabgrass, Large (large crabgrass [2]; [10]): 20
Plant response rating, Crabgrass, Large (large crabgrass [2]; [12]): 10
Plant response rating, Crabgrass, Large (large crabgrass [2]; [13]): 0
Plant response rating, Johnsongrass (johnsongrass; [7]): 0
Plant response rating, Johnsongrass (johnsongrass; [8]): 0
Plant response rating, Johnsongrass (johnsongrass; [9]): 50
Plant response rating, Johnsongrass (johnsongrass; [14]): 60
Johnsongrass plant response rating (johnsongrass; [15]): 35
Plant response rating, Johnsongrass (johnsongrass; [10]): 35
Plant response rating, Johnsongrass (johnsongrass; [12]): 30
Plant response rating, Johnsongrass (johnsongrass; [13]): 0
Plant response rating, Morningglory (morningglory; [7]): 0
Plant response rating, Morningglory (morningglory; [8]): 0
Plant response rating, Morningglory (morningglory; [9]): 5
Plant response rating, Morningglory (morningglory; [14]): 30
Morningglory plant response rating (morningglory; [15]): 70
Plant response rating, Morningglory (morningglory; [10]): 70
Plant response rating, Morningglory (morningglory; [12]): 10
Plant response rating, Morningglory (morningglory; [13]): 10
Plant response rating, Nightshade (eastern black nightshade; 62 g ai/ha, scale 0 to 100): 70
Plant response rating, Nightshade (eastern black nightshade; [16]): 100
Plant response rating, Nightshade (eastern black nightshade; 250 g ai/ha, scale 0-100): 100
Plant response rating, Nightshade (eastern black nightshade; [17]): 100
Plant response rating, Nutsedge, Yellow (yellow nutsedge; [7]): 0
Plant response rating, Nutsedge, Yellow (yellow nutsedge; [8]): 0
Plant response rating, Nutsedge, Yellow (yellow nutsedge; [9]): 0
Plant response rating, Nutsedge, Yellow (yellow nutsedge; [14]): 0
Nutsedge, Yellow plant response rating (yellow nutsedge; [15]): 20
Plant response rating, Nutsedge, Yellow (yellow nutsedge; [10]): 20
Plant response rating, Nutsedge, Yellow (yellow nutsedge; [12]): 10
Plant response rating, Nutsedge, Yellow (yellow nutsedge; [13]): 0
